Paper PMC2287205 (Analytical and Bioanalytical Chemistry, 2008)

Experiments:
ERα = ERα (Homo sapiens, UniProt P03372); type: binding; settings: mixture of five estrogenic compounds separated by gradient HPLC (Fig. 7)
[1] = Microsomal incubation with PB-induced rat liver microsomes; settings: 100 μM zearalenone, 120 min, 37 °C

ERα, sequence (P03372 311-547): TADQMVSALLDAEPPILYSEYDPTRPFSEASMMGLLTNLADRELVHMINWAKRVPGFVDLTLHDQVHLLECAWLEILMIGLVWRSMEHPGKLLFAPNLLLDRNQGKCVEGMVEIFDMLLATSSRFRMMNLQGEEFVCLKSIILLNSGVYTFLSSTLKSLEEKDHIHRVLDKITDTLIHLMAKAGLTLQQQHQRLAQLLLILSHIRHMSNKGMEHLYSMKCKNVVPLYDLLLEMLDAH

Row | Structure (SMILES) | ERα bioaffinity detected in HRS ERα FP trace (ERα) | Metabolism by rat liver microsomes [1]
1 | O=c1oc2cc(O)ccc2cc1-c1ccc(O)cc1 [coumarol, 7-Hydroxy-3-p-hydroxyphenylcoumarine] | possible to detect the ERα bioaffinities | –
2 | C[C@H]1CCCC(=O)CCC/C=C/c2cc(O)cc(O)c2C(=O)O1 [zearalenone] | possible to detect the ERα bioaffinities | metabolized by rat liver microsomes into at least three major metabolites
